Data taken from patent US8497283B2, “Autotaxin inhibitors” (Merck Patent GmbH, priority 2009, dated 2013).

What follows are molecules tested against T1, recombinant autotaxin (Homo sapiens, UniProt Q13822) (assay: Autotaxin assay (Amplex Red fluorescence, LPC substrate)). Settings: ten serial 1:3 dilutions starting at 30 μM, duplicates; 75 μM LPC; values given as upper bounds.
T1 construct: made in house; host or cells: Hi5 insect cells (baculovirus)
Type: biochemical
Method in brief: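 Recombinant human autotaxin (Hi5 baculovirus) pre-incubated with compound 30 min at 22° C, then 75 μM LPC added for 90 min at 37° C. Choline released detected via choline oxidase/peroxidase/Amplex Red fluorescence (Ex 485, Em 612 nm); ten 1:3 dilutions from 30 μM, normalised to 500 μM C14 LPA, for IC50.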
Work on O=C(Nc1ccc2[nH]nnc2c1)c1[nH]nc2c1CCN(C(=O)OCc1ccc(OC(F)(F)F)c(Cl)c1)C2 [Compound 58, 3-(1H-Benzotriazol-5-ylcarbamoyl)-2,4,5,7-tetrahydro-pyrazolo[3,4-c]pyridine-6-carboxylic acid 3-chloro-4-trifluoromethoxy-benzyl ester] yielded an IC50 of less than 1 µM.
With COc1ccc(C2CCCN(C(=O)c3[nH]nc4c3CCN(C(=O)c3ccc5[nH]nnc5c3)C4)C2)cc1 (stereo not drawn) [Compound 59, (1H-Benzotriazol-5-yl)-{3-[3-(4-methoxy-phenyl)-piperidine-1-carbonyl]-2,4,5,7-tetrahydro-pyrazolo[3,4-c]pyridin-6-yl}-methanone] the IC50 was less than 30 µM.
O=C(NCc1ccc(OC(F)(F)F)cc1)c1[nH]nc2c1CCN(C(=O)c1ccc3[nH]nnc3c1)C2 [Compound 60, 6-(1H-Benzotriazole-5-carbonyl)-4,5,6,7-tetrahydro-2H-pyrazolo[3,4-c]pyridine-3-carboxylic acid 4-trifluoromethoxy-benzylamide] showed an IC50 of less than 30 µM.
Work on O=C(NCc1ccc(C(F)(F)F)cc1)c1[nH]nc2c1CCN(C(=O)c1ccc3[nH]nnc3c1)C2 [Compound 61, 6-(1H-Benzotriazole-5-carbonyl)-4,5,6,7-tetrahydro-2H-pyrazolo[3,4-c]pyridine-3-carboxylic acid 4-trifluoromethyl-benzylamide] yielded an IC50 of less than 10 µM.
COc1ccc2c(c1)CCC(NC(=O)c1[nH]nc3c1CCN(C(=O)c1ccc4[nH]nnc4c1)C3)C2 (stereo not drawn) [Compound 62, 6-(1H-Benzotriazole-5-carbonyl)-4,5,6,7-tetrahydro-2H-pyrazolo[3,4-c]pyridine-3-carboxylic acid (6-methoxy-1,2,3,4-tetrahydro-naphthalen-2-yl)-amide] gave an IC50 of less than 10 µM.
COC(=O)CC(NC(=O)c1[nH]nc2c1CCN(C(=O)c1ccc3[nH]nnc3c1)C2)c1ccc(C(C)(C)C)cc1 (stereo not drawn) [Compound 63, 3-{[6-(1H-Benzotriazole-5-carbonyl)-4,5,6,7-tetrahydro-2H-pyrazolo[3,4-c]pyridine-3-carbonyl]-amino}-3-(4-tert-butyl-phenyl)-propionic acid methyl ester] gave an IC50 of less than 30 µM.
